Several values for one entry are separate records, joined by “and”; a condition that tells them apart may be missing. Equal entries are not always repeated. Entries after “also recorded” stand apart in the source; their conditions may differ. Where a SMILES comes first, the peptide text is derived from it.
Key:
PA2592 [1] = target: T1, PA2592 (Pseudomonas aeruginosa, UniProt Q9I0P5); experiment: biochemical; type: binding
T1 sequence (Q9I0P5 20-367): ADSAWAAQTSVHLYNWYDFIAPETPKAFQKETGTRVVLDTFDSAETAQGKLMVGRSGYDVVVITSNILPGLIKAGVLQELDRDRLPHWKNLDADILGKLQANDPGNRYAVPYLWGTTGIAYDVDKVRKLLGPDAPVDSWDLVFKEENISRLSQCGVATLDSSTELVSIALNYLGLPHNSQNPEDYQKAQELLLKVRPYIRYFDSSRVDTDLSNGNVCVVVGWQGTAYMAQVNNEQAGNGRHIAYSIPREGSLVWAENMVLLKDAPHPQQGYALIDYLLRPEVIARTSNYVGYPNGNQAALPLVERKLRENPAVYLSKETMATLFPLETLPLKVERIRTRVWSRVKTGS

PA2592 [2] = target: T1, PA2592; experiment: DSF thermal shift ligand screening, PA2592; type: binding, Pseudomonas aeruginosa PAO1; details: arrays PM2A, PM3B, PM5
PA4500 (dppA3) [3] = target: T2, PA4500 (dppA3) (Pseudomonas aeruginosa, UniProt Q9HVS1); experiment: Isothermal titration calorimetry, PA4500; type: binding, Pseudomonas aeruginosa PAO1; details: 25 °C; for Kd: read-out: KD by ITC (converted)
[4] = system: Pseudomonas aeruginosa PAO1; type: cell-based; details: chemoeffector 1 mM; for Chemotaxis: capillary assay, 30 min
PA4497 (dppA2) = target: T3, PA4497 (dppA2) (Pseudomonas aeruginosa, UniProt Q9HVS4); type: binding; details: arrays PM3B, PM6, PM7, PM8
T3 sequence (Q9HVS4 25-532): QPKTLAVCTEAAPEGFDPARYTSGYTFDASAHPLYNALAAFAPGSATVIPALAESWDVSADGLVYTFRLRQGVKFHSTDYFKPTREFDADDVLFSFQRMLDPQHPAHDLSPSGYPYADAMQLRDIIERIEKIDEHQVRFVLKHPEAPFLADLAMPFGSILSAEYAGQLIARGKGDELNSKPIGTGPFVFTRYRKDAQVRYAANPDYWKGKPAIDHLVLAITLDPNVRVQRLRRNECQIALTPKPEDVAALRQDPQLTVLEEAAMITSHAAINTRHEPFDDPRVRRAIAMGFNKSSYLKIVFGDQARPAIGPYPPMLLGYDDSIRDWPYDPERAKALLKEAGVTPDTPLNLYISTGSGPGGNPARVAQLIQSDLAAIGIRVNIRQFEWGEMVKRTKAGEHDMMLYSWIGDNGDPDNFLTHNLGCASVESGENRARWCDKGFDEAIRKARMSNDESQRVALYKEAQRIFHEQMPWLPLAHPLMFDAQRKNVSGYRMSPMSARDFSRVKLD

PA4500 (dppA3) [5] = target: T2, PA4500 (dppA3); experiment: DSF thermal shift ligand screening, PA4500; type: binding, Pseudomonas aeruginosa PAO1; details: arrays PM3B, PM6, PM7, PM8
PA0222 = target: T4, PA0222 (Pseudomonas aeruginosa, UniProt Q9I6R6); experiment: Isothermal titration calorimetry, PA0222; type: binding, Pseudomonas aeruginosa PAO1; details: 25 °C
T4 sequence (Q9I6R6 29-352): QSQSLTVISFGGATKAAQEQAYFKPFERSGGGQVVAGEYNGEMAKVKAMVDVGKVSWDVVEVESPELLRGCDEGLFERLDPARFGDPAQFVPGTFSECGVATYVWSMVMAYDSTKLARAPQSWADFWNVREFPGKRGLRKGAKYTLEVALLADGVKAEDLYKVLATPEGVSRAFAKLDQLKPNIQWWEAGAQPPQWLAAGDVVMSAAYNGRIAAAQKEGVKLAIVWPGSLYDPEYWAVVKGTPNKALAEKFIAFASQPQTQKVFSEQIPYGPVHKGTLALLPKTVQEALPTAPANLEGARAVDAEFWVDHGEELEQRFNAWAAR

PA3610 (potD) = PA3610 (potD) (Pseudomonas aeruginosa, UniProt Q9HY16); experiment: Isothermal titration calorimetry, PA3610; type: binding, Pseudomonas aeruginosa PAO1; details: 25 °C, read-out: KD by ITC (converted)
PA3889 (opuCC) = PA3889 (opuCC) (Pseudomonas aeruginosa, UniProt Q9HXC4); experiment: Isothermal titration calorimetry, PA3889; type: binding, Pseudomonas aeruginosa PAO1; details: 25 °C
PA4913 = PA4913 (Pseudomonas aeruginosa, UniProt Q9HUQ0); experiment: DSF thermal shift ligand screening, PA4913; type: binding, Pseudomonas aeruginosa PAO1; details: Tm change vs ligand-free protein
PA1074 (braC) = PA1074 (braC) (Pseudomonas aeruginosa, UniProt P21175); experiment: biochemical; type: binding, Pseudomonas aeruginosa PAO1
PA1493 (cysP) = PA1493 (cysP) (Pseudomonas aeruginosa, UniProt Q9I3L9); experiment: biochemical; type: binding, Pseudomonas aeruginosa PAO1; details: PA1493 (cysP); 25 °C
PA1863 (modA) = PA1863 (modA) (Pseudomonas aeruginosa, UniProt Q9I2N2); experiment: biochemical; type: binding, Pseudomonas aeruginosa PAO1
[6] = target: PA4500 (DppA3) (Pseudomonas aeruginosa PAO1) (UniProt Q9HVS1); experiment: ITC
[7] = target: PA4500 (DppA3) solute binding protein of Pseudomonas aeruginosa PAO1 (Pseudomonas aeruginosa PAO1) (UniProt Q9HVS1); experiment: differential scanning fluorimetry thermal shift assay
[8] = target: PA4497 (DppA2) solute binding protein of Pseudomonas aeruginosa PAO1 (Pseudomonas aeruginosa PAO1) (UniProt Q9HVS4); experiment: as above

Chain of PA1493 (cysP) (Q9I3L9 23-332): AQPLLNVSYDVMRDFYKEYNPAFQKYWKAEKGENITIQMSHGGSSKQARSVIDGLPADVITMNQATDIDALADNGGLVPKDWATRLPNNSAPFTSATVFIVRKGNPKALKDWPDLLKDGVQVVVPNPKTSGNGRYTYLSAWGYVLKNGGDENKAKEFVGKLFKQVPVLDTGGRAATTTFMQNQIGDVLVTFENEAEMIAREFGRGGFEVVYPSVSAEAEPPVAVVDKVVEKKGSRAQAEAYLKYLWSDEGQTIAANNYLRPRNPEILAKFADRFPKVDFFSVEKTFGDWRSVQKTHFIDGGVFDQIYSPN
Chain of PA4500 (DppA3) (Pseudomonas aeruginosa PAO1) (Q9HVS1 25-533): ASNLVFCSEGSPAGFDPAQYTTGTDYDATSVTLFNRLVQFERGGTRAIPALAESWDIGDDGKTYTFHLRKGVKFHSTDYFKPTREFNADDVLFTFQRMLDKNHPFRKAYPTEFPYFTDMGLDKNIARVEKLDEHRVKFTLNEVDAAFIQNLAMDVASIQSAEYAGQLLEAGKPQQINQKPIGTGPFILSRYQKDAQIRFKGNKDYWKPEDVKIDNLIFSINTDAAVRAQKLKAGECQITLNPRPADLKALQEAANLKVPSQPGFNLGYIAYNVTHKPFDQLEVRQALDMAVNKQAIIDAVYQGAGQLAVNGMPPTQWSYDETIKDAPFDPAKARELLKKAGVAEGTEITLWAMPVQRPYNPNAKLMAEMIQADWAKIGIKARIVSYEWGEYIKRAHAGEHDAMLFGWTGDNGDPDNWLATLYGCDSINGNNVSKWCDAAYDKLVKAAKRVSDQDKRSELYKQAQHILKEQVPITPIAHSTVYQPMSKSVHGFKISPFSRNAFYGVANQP
T2 sequence (Q9HVS1 25-533): as above
Chain of PA4500 (DppA3) solute binding protein of Pseudomonas aeruginosa PAO1 (Pseudomonas aeruginosa PAO1) (Q9HVS1 25-533): as above
Chain of PA1863 (modA) (Q9I2N2 24-251): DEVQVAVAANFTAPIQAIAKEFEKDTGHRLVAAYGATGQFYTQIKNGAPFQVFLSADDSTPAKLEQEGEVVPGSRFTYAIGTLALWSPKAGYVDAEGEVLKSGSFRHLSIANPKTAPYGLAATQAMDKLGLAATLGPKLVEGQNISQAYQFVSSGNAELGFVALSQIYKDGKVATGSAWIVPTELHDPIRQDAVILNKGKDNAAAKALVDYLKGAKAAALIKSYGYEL
Chain of PA4913 (Q9HUQ0 28-374): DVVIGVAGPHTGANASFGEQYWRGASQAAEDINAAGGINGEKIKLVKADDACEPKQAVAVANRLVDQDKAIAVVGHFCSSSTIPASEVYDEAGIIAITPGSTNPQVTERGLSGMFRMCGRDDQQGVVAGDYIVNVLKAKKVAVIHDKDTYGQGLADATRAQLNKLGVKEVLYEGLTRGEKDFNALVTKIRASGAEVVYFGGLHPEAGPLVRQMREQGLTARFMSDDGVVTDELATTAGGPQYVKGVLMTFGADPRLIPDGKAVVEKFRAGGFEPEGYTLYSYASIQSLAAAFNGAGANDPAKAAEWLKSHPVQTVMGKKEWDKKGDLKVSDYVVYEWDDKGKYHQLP
Chain of PA1074 (braC) (P21175 27-373): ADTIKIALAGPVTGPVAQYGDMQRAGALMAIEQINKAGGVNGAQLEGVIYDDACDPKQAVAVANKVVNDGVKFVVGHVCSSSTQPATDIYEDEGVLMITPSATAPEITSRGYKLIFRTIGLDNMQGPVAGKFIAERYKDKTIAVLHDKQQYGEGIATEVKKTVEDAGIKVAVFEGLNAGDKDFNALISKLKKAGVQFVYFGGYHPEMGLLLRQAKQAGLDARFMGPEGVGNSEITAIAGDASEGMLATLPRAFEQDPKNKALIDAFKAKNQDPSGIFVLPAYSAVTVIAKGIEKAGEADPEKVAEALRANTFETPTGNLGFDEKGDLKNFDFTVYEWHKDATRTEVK
Chain of PA3610 (potD) (Q9HY16 21-354): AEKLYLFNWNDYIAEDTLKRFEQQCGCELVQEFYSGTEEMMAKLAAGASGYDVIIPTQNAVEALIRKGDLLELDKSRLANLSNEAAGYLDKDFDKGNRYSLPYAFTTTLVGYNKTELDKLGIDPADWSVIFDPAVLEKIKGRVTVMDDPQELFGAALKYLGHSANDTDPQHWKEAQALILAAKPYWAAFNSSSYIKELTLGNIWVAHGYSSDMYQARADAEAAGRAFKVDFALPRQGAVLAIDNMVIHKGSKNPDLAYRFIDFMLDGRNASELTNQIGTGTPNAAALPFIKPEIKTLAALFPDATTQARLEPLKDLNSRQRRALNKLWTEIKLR
Chain of PA3889 (opuCC) (Q9HXC4 24-311): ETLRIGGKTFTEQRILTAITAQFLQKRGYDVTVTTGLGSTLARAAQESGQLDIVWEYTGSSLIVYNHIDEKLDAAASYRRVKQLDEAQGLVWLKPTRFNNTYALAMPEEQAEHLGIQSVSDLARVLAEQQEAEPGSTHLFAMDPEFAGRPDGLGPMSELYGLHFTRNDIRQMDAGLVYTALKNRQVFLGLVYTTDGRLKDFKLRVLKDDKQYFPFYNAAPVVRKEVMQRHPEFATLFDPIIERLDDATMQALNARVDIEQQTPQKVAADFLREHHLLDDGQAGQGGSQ

NCCCCN=C(N)N [Agmatine]
Kd (PA2592 [1]): 15000 nM | Tm DSF (Tm increase) (PA2592 [2]): 5.3 °C

C[C@H](N)C(=O)N[C@@H](C)C(=O)N[C@@H](C)C(=O)O [Ala-Ala-Ala]
No Binding Observed by ITC (PA4500 (dppA3) [3]): absence of binding | Chemotaxis ([4]; except molybdate 0.1 mM): No (Positive chemotaxis was considered when the number of bacterial cells per capillary was superior to 5000.) | Tm DSF (Tm increase) (PA4497 (dppA2)): 9.1 °C

C[C@H](N)C(=O)N[C@@H](C)C(=O)O [Ala-Ala] (H-Ala-Ala-OH)
Tm DSF (Tm increase) (PA4500 (dppA3) [5]): 11 °C and 11.3 °C | Kd (PA4500 (dppA3) [3]): 210 ± 20 nM

C[C@H](N)C(=O)NCC(=O)O [Ala-Gly] (H-Ala-Gly-OH)
Chemotaxis ([4]; except molybdate 0.1 mM): No (Positive chemotaxis was considered when the number of bacterial cells per capillary was superior to 5000.)

C[C@H](N)C(=O)N[C@@H](Cc1c[nH]cn1)C(=O)O [Ala-His] (H-Ala-His-OH; N-terminus and C-terminus assumed)
Tm DSF (Tm increase) (PA4500 (dppA3) [5]): 3.0 °C | Kd (PA4500 (dppA3) [3]): 7400 nM

C[C@H](N)C(=O)N[C@@H](Cc1ccccc1)C(=O)O [Ala-Phe]
Tm DSF (Tm increase) (PA4500 (dppA3) [5]): 2.0 °C | Kd (PA4500 (dppA3) [3]): 6100 nM

C[C@H](N)C(=O)N[C@H](C(=O)O)[C@@H](C)O [Ala-Thr] (H-Ala-Thr-OH; N-terminus and C-terminus assumed)
Tm DSF (Tm increase) (PA4500 (dppA3) [5]): 7 °C | Kd (PA4500 (dppA3) [3]): 980 nM

CCCC(=O)O [Butyrate, butyric acid]
No Binding Observed by ITC (PA0222): failed to bind

NCCCCCN [Cadaverine]
Kd (PA3610 (potD)): 65000 nM

C[N+](C)(C)CCO [Choline]
No Binding Observed by ITC (PA3889 (opuCC)): no binding heats were observed

C[C@@H](N)C(=O)O [D-Ala]
Chemotaxis ([4]; except molybdate 0.1 mM): Yes [15, 41] Yes [15, 41] Yes [15, 41] Yes [15, 41] Yes [15, 41] Yes Yes [15, 41] n. d. (Positive chemotaxis was considered when the number of bacterial cells per capillary was superior to 5000.) | Chemotaxis response in words ([4]; except molybdate 0.1 mM): very strong taxis | Tm DSF (Tm increase) (PA4913): 6.8 °C | No Binding Observed by ITC (PA1074 (braC)): no binding was detected

N[C@@H](CCC(=O)O)C(=O)N[C@@H](CCC(=O)O)C(=O)O [Glu-Glu] (H-Glu-Glu-OH)
No Binding Observed by ITC (PA4500 (dppA3) [3]): absence of binding

C[C@H](NC(=O)CNC(=O)CN)C(=O)O [Gly-Gly-Ala]
Chemotaxis ([4]; except molybdate 0.1 mM): No (Positive chemotaxis was considered when the number of bacterial cells per capillary was superior to 5000.) | Tm DSF (Tm increase) (PA4497 (dppA2)): 7.6 °C

NCC(=O)NCC(=O)NCC(=O)O [Gly-Gly-Gly] (H-Gly-Gly-Gly-OH)
Tm DSF (Tm increase) (PA4497 (dppA2)): 4.4 °C

CC[C@H](C)[C@H](NC(=O)CNC(=O)CN)C(=O)O [Gly-Gly-Ile] (H-Gly-Gly-Ile-OH)
Tm DSF (Tm increase) (PA4497 (dppA2)): 5.1 °C

NCC(=O)NCC(=O)N[C@@H](Cc1ccccc1)C(=O)O [Gly-Gly-Phe] (H-Gly-Gly-Phe-OH)
Tm DSF (Tm increase) (PA4497 (dppA2)): 3.7 °C

NCC(=O)NC(Cc1ccccc1)C(=O)NC(Cc1ccccc1)C(=O)O (stereo not drawn) [Gly-Phe-Phe] (H-Gly-Phe-Phe-OH; configuration not given here)
Tm DSF (Tm increase) (PA4497 (dppA2)): 6.6 °C

NCC(=O)NC(CO)C(=O)O (stereo not drawn) [Gly-Ser]
Chemotaxis ([4]; except molybdate 0.1 mM): Yes (Positive chemotaxis was considered when the number of bacterial cells per capillary was superior to 5000.)

CC(C)[C@H](NC(=O)CN)C(=O)O [Gly-Val] (H-Gly-Val-OH)
Tm DSF (Tm increase) (PA4500 (dppA3) [5]): 2.0 °C | Kd (PA4500 (dppA3) [3]): 6300 nM

C[C@H](N)C(=O)O [L-Ala]
No Binding Observed by ITC (PA4500 (dppA3) [3]): absence of binding | Tm DSF (Tm increase) (PA4913): 12.7 °C | Kd (PA1074 (braC)): 210 nM

N[C@@H](CCO)C(=O)O [L-Homoserine]
Chemotaxis response, number of cells per capillary ([4]; corrected for buffer capillaries): more than 300,000 cells per capillary | Kd (PA1074 (braC)): 720 nM

CC[C@H](C)[C@H](N)C(=O)O [L-Ile]
Kd (PA1074 (braC)): 280 nM

CC(C)[C@H](N)C(=O)O [L-Val]
Tm DSF (Tm increase) (PA4913): 4.1 °C | Kd (PA1074 (braC)): 70 nM

CC(C)C[C@H](N)C(=O)NCC(=O)NCC(=O)O [Leu-Gly-Gly] (H-Leu-Gly-Gly-OH)
Chemotaxis ([4]; except molybdate 0.1 mM): Yes (Positive chemotaxis was considered when the number of bacterial cells per capillary was superior to 5000.) | Tm DSF (Tm increase) (PA4497 (dppA2)): 3.2 °C

CC(C)CC(N)C(=O)NC(CC(C)C)C(=O)NC(CC(C)C)C(=O)O (stereo not drawn) [Leu-Leu-Leu] (H-Leu-Leu-Leu-OH; configuration not given here)
Tm DSF (Tm increase) (PA4497 (dppA2)): 5.0 °C

[O]=[Mo](=[O])([O-])[O-] [Molybdate]
No Binding Observed by ITC (PA1493 (cysP)): did not show any binding | Kd (PA1863 (modA); Affinity by ITC, PA1863 (modA), value as printed in text): ~10 nM | Kd (PA1863 (modA); KD by ITC, PA1863 (modA), 25 °C): 10 nM

N[C@@H](Cc1ccccc1)C(=O)NCC(=O)NCC(=O)O [Phe-Gly-Gly] (H-Phe-Gly-Gly-OH)
Tm DSF (Tm increase) (PA4497 (dppA2)): 8.3 °C

CC(C)[C@H](N)C(=O)N[C@@H](Cc1ccc(O)cc1)C(=O)N[C@H](C(=O)O)C(C)C [Val-Tyr-Val] (H-Val-Tyr-Val-OH)
Chemotaxis ([4]; except molybdate 0.1 mM): Yes (Positive chemotaxis was considered when the number of bacterial cells per capillary was superior to 5000.) | Tm DSF (Tm increase) (PA4497 (dppA2)): 5.0 °C

[O]=[V]([O-])([O-])[O-] [Vanadate]
No Binding Observed by ITC (PA1863 (modA)): did not reveal any binding

[O]=[Mn](=[O])([O-])[O-] [manganate]
No Binding Observed by ITC (PA1863 (modA)): did not reveal any binding

O=[Se](O)O [selenite]
No Binding Observed by ITC (PA1493 (cysP)): did not show any binding

CCC(N)C(=O)O (stereo not drawn) [α-aminobutyrate]
Tm DSF (Tm increase) (PA4913): 8.1 °C

Ala-Ala (peptide)
Ka [6]: 4.71e+06 M⁻¹ | Tm increase (DSF) [7]: 11.3 °C

Ala-Ala-Ala (peptide)
Tm increase (DSF) [8]: 9.1 °C

Ala-His (peptide)
Ka [6]: 134000 M⁻¹ | Tm increase (DSF) [7]: 3 °C

Ala-Phe (peptide)
Ka [6]: 162000 M⁻¹ | Tm increase (DSF) [7]: 2 °C

Ala-Thr (peptide)
Ka [6]: 1.09e+06 M⁻¹ | Tm increase (DSF) [7]: 7 °C

Gly-Gly-Ala (peptide)
Tm increase (DSF) [8]: 7.6 °C

Gly-Gly-Gly (peptide)
Tm increase (DSF) [8]: 4.4 °C

Gly-Gly-Ile (peptide)
Tm increase (DSF) [8]: 5.1 °C

Gly-Gly-Phe (peptide)
Tm increase (DSF) [8]: 3.7 °C

Gly-Phe-Phe (peptide)
Tm increase (DSF) [8]: 6.6 °C

Gly-Val (peptide)
Ka [6]: 157000 M⁻¹ | Tm increase (DSF) [7]: 2 °C

Leu-Gly-Gly (peptide)
Tm increase (DSF) [8]: 3.2 °C

Leu-Leu-Leu (peptide)
Tm increase (DSF) [8]: 5 °C

Phe-Gly-Gly (peptide)
Tm increase (DSF) [8]: 8.3 °C

Tungstate
Chemotaxis ([4]; except molybdate 0.1 mM): No (Positive chemotaxis was considered when the number of bacterial cells per capillary was superior to 5000.) | KD by ITC (PA1863 (modA); PA1863 (modA), 25 °C): ultra-tightly; also recorded: Ultratight

Val-Tyr-Val (peptide)
Tm increase (DSF) [8]: 5 °C

phosphate
No Binding Observed by ITC (PA1493 (cysP)): did not show any binding

From PMC6829864, “Determination of Ligand Profiles for Pseudomonas aeruginosa Solute Binding Proteins” (International Journal of Molecular Sciences, 2019)
